Laboratory results published in patent US8273768B2, “Iso CA-4 and analogues thereof as potent cytotoxic agents inhibiting tubuline polymerization” (Centre National de la Recherche Scientifique (CNRS), priority 2007, dated 2012).
Where two headings read alike, the source gives them in different places.

Experiments:
[1] = test system: HCT116; test: Study of cytotoxicity (CellTiter-Blue, 72 hours); type: cell-based; conditions: Homo sapiens, HCT-116; 72 hours of incubation; read-out: IC50 for different cell lines: HCT116
Method: (§1) The biological activity of the compounds of the invention was studied in vitro on 7 human cancer cell lines with different tissue origins (HCT116: colorectal carcinoma; K562: chronic myeloid leukemia; B16-F10: melanoma; U87: glioblastoma; A549: lung cancer and MDA-MB 231 and MDA-MB 435: breast cancer). The cells selected for the study were incubated at 37° C. in the presence of one of the compounds added into the culture medium at different concentrations. The whole of the conducted experiments allowed determination of the toxicity level of the tested compound, its effect on the course of the cell cycle as well as its capacity of inducing cell death by apoptosis.
(§2) The cancer cell lines originate from the American Type Culture Collection (Rockville, Md., USA) and were grown according to the recommendations of the supplier.
(§3) The cells A549, U87, MDA-MB231, MDA-MB435 and B16F10 were grown in a culture medium “Dulbecco minimal essential medium” (DMEM) containing 4.5 g/L of glucose and supplemented with 10% fetal calf serum and 1% glutamine. The K562 and HCT116 were grown in an RPMI 1640 medium containing 10% fetal calf serum and 1% glutamine. All the cell lines were maintained in the culture at 37° C. in a humid atmosphere containing 5% of CO2. Cell viability was evaluated by using the reagent “CellTiter-Blue™” (Promega, Wis., USA) while observing the instructions of the manufacturer. The cells were sown in 96-well culture plates with 5000 cells per well in 50 μL of culture medium. After 24 hours of culture, the compounds of general formula (I) dissolved in DMSO were individually added into each of the wells in an amount of 50 μl per well. All the compounds were tested in triplicate for each defined concentration and each experiment was repeated three times. After 72 hours of incubation, 20 μL of resazurin were added in each well. After 2 hours of incubation, the emitted fluorescence was measured at 590 nm after excitation at 560 nm by means of a fluorescence reader of the Victor type (Perkin-Elmer, USA).
(§4) The concentration of each of the compounds which induces the death of 50% of the cells (IC50) was determined after 72 hours of incubation. Certain compounds according to the invention have an IC50 of the order of one nanomolar concentration, therefore equivalent to CA-4 taken as a reference.

[2] = test system: A549; test: Study of cytotoxicity (CellTiter-Blue, 72 hours); type: cell-based; conditions: Homo sapiens, read-out: IC50 for different cell lines: A549
Method: as §1, §2, §3, §4

[3] = test system: MDA-MB 231; test: Study of cytotoxicity (CellTiter-Blue, 72 hours); type: cell-based; conditions: Homo sapiens, read-out: IC50 for different cell lines: M231
Method: as §1, §2, §3, §4

[4] = test system: MDA-MB 435; test: Study of cytotoxicity (CellTiter-Blue, 72 hours); type: cell-based; conditions: Homo sapiens, read-out: IC50 for different cell lines: M435
Method: as §1, §2, §3, §4

[5] = test system: U87; test: Study of cytotoxicity (CellTiter-Blue, 72 hours); type: cell-based; conditions: Homo sapiens, U-87 MG, read-out: IC50 for different cell lines: U87
Method: as §1, §2, §3, §4

[6] = target: T1, purified tubulin from pig brains (Sus scrofa, UniProt P02550+P02554); test: Inhibition of polymerization of tubulin (turbidimetry); type: biochemical; conditions: pig brain tubulin, turbidimetry at 350 nm
T1 construct: from pig brains, where it forms 20-25% of the soluble proteins; from tissue; host or cells: pig brain
T1 sequence (P02554 whole entry): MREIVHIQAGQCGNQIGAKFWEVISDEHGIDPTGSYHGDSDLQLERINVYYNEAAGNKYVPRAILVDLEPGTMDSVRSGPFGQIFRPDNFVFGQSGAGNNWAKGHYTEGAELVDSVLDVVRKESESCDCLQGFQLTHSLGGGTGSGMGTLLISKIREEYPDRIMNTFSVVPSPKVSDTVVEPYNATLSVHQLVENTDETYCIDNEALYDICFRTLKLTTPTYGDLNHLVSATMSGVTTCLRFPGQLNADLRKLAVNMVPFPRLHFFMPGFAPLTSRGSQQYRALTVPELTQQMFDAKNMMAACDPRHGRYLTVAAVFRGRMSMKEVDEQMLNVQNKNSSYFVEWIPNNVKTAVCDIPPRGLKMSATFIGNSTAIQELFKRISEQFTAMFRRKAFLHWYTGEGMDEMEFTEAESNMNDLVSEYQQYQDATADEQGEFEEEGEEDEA
T1 sequence (P02550 whole entry): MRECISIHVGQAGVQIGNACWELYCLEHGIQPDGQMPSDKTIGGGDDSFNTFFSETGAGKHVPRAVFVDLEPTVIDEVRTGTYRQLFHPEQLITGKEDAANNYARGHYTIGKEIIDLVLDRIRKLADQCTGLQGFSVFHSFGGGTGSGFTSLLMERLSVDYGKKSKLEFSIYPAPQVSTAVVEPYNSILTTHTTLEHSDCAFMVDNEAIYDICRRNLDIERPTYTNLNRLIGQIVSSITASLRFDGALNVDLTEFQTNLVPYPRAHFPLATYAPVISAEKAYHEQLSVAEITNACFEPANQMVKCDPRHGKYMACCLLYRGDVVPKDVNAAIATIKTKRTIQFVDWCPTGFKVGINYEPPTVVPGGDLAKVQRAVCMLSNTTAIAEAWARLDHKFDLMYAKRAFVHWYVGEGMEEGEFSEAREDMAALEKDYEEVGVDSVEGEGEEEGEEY
Method: Tests relating to the inhibition of polymerization of tubulin were carried out on compounds which had the best cytotoxic activities. These tests were carried out on purified tubulin by the Shelanski method (Shelanski, M. C.; Gaskin, F.; Cantor, C. R. Proc. Natl. Acad. Sci. USA, 1973, 70, 765-768) from pig brains, where it forms 20-25% of the soluble proteins. Purification method is based on temperature-dependent assembling-disassembling cycles. Polymerization of tubulin was tracked with turbidimetry according to the Gaskin method (Gaskin, F.; Cantor, C. R.; Shelanski, M. L. J. Bio. Mol. 1974, 89, 737) at a wavelength of 350 nm. The different samples were dissolved in DMSO and incubated for 10 minutes at 37° C. and then for 5 minutes at 0° C.
The CA-4 compound and DMSO were taken as references.
The tests have shown for these compounds an activity inhibiting polymerization of tubulin similar to the one of the reference compound CA-4 (of the order of only one micromolar concentration to a few tens of micromolar concentrations).

[7] = test system: mouse leukemic P-388 cells; conditions: cited from earlier work
[8] = test system: HCT 15 cells; conditions: read-out: IC50, cytotoxic activity; cited from earlier work
[9] = test system: mouse colon adenocarcinoma 26; conditions: cited from earlier work
[10] = test system: human colon tumors LS174T xenografted in Nude mice; test: Antivascular activity in vivo (MRI, Dotarem entry into tumors); conditions: LS174T xenograft, 3 hours after administration, DMXAA 27.5 mg/kg IP, (I-1) 45 mg/kg IV
Method: The antivascular effect of the molecule (I-1) was tested on mice bearing human tumors by comparison with the positive control DMXAA, according to the procedure described by Beauregard et al. (NMR Biomed., 2002, 15:99-105).
Thus, CD-1 Nude female mice were xenografted by subcutaneous injection of human colon tumoral cells (LS174T). The mice bearing tumors were then treated with 0.9% NaCl (carrier, 10 mL/kg), DMXAA (27.5 mg/kg) via an intraperitoneal route (IP) or the molecule (I-1) (45 mg/kg) via an intravenous route (IV). Three hours after administration, the mice were treated with the Dotarem® contrast agent intravenously (IV). The penetration of the contrast agent into the tumors was followed in real time by magnetic resonance imaging (MRI) and is expressed by an enhancement of the intensity of the signal in the tumors. Densitometric analysis of the acquired images allows determination of the maximum enhancement (Rmax) as well as the slope P0 corresponding to the entry rate of Dotarem® into the tumors.

[11] = MDA-MB-231, 72 hours of incubation
[12] = MDA-MB-435, 72 hours of incubation

Compound `C=C(c1ccc(OC)c(OC(=O)CCC(=O)O)c1)c1cc(OC)c(OC)c(OC)c1` [(I-35)] has an IC50 [1] of 5 nM.

In the case of `C=C(c1ccc(OC)c(OC(=O)C(C)(C)C)c1)c1cc(OC)c(OC)c(OC)c1` [(I-7)], the IC50 ([2]; A549, 72 hours of incubation) is reported as 28 nM, the IC50 [1] is reported as 8 nM and the IC50 [3, 11] is reported as 50 nM. It also gave an IC50 [4, 12] of 25 nM and an IC50 ([5]; 72 hours of incubation) of 15 nM.

`C=C(c1ccc(OC)c(N)c1)c1cc(OC)c(OC)c(OC)c1` [(I-17)] gave an IC50 ([2]; A549, 72 hours of incubation) of 8 nM, an IC50 [3, 11] of 6 nM and an IC50 [6] of 1800 nM.

In the case of `COc1ccc(C=Cc2cc(OC)c(OC)c(OC)c2)cc1O` (single isomer, unassigned) [E isomer of CA-4], the “Cytotoxic activity, times weaker than the natural Z isomer” value [7] is listed as “about 60 times”.

Work on `C=C(c1ccc(OC)c(OC(=O)c2ccncc2)c1)c1cc(OC)c(OC)c(OC)c1` [(I-34)] yielded an IC50 [1] of 3 nM.

In the case of `COc1ccc(/C=C\c2cc(OC)c(OC)c(OC)c2)cc1O` [CA-4, combrestatatin A-4], the IC50 [8] is given as 0.9 nM and the “Antitumoral activity in vivo” value [9] is given as “no antitumoral activity is observed”.

With `C=C(c1ccc(OC)c(OC(=O)Cc2cccc3c(=O)c4ccc(C)c(C)c4oc23)c1)c1cc(OC)c(OC)c(OC)c1` [(I-45)] the IC50 [1] was 7 nM.

`C=C(c1ccc(OC)c(F)c1)c1cc(OC)c(OC)c(OC)c1` [(I-22)] showed an IC50 [1] of 7 nM and an IC50 [6] of 4100 nM.

For `C=C(c1ccc(OC)c(OC(=O)[C@@H](COC(C)(C)C)NC(=O)OCC2c3ccccc3-c3ccccc32)c1)c1cc(OC)c(OC)c(OC)c1` [(I-32)], the IC50 [1] was 8 nM.

In the case of `C=C(c1ccc(OC)cc1)c1cc(OC)c(OC)c(OC)c1` [(I-2)], the IC50 ([2]; A549, 72 hours of incubation) is reported as 28 nM, the IC50 [1] is reported as 42 nM and the IC50 [3, 11] is reported as 40 nM. For the same compound, the IC50 [4, 12] was 25 nM and the IC50 [6] was 2000 to 3300 nM.

Work on `C=C(c1ccc(OC)c(OC(C)=O)c1)c1cc(OC)c(OC)c(OC)c1` [(I-6)] yielded an IC50 ([2]; A549, 72 hours of incubation) of 25 nM, an IC50 [1] of 8 nM and an IC50 [3, 11] of 9 nM. For the same compound, the IC50 [4, 12] was 11 nM and the IC50 ([5]; 72 hours of incubation) was 18 nM.

In the case of `Cc1ccc2c(=O)c3cccc(CC(=O)O)c3oc2c1C` [DMXAA, 5,6-dimethylxanthenone-4-acetic acid, reference compound], the “Average of P0” value [10] is reported as 0.50±0.40 arbitrary unit and the “Average of Rmax” value [10] is reported as 26.58±21.19 % of the NaCl control.

Compound `C=C(c1ccc(OC)c(OC(=O)CCCc2ccc(N(CCCl)CCCl)cc2)c1)c1cc(OC)c(OC)c(OC)c1` [(I-8)] has an IC50 ([2]; A549, 72 h) of 42 nM, an IC50 [1] of 25 nM and an IC50 ([3]; MDA-MB-231, 72 h) of 50 nM. The IC50 ([4]; MDA-MB-435, 72 h) was 40 nM and the IC50 ([5]; 72 h) was 35 nM.

`C=C(c1ccc(OC)c(OC(=O)CN(C)C)c1)c1cc(OC)c(OC)c(OC)c1` [(I-36)] gave an IC50 [1] of 3 nM.
